Assay results taken from patent publication US5110935A, “New compounds which are active against the tissue forms of malaria and method of preparation” (Ire-Celltarg, S.A., priority 1988, dated 1992).
Values joined by “and” are separate entries in the source; they are usually repeats but may differ in a detail not shown here. Equal entries are not always repeated. “Also recorded” adds a separate entry of the source. Where two headings read alike, the source gives them in different places.

Tests used:
[1] = system: Plasmodium berghei; experiment: Therapeutic index in mice; format: in vivo, P. berghei; conditions: i.v.; for Therapeutic index (TI): ratio of LD50 to CPD50, mice; for Therapeutic index, fold higher than that of PQ: mice
Excerpt: The therapeutic index is defined as the ratio of the toxicity, expressed as LD50, to the therapeutic activity, expressed as CPD50, in mice.
^b : The therapeutic index (TI) is the ratio of LD50 to […]

[2] = system: lysosomal enzymes; experiment: Hydrolysis in the presence of lysosomal enzymes; format: in vitro ADME, rat; conditions: for Relative concentration of compound (% of initial concentration): pH 4.5, 37° C., 0 h; for Relative concentration of primaquine (PQ) from derivative: pH 4.5, 0 h
Method: (§1) The compounds, at a final concentration of 15 μg/ml, are incubated in 50 mM acetate buffer, pH 4.5, at 37° C. in the presence of 5 mM cysteine and a lysosomal enzyme fraction (0.15 mg protein/ml) purified from rat liver.
(§2) The purified lysosomal fraction is prepared according to the method described by Trouet (1974, Meth. Enzymol., 31, 323-334).
(§3) At intervals of time, corresponding samples are taken from the incubation. The enzyme reaction is stopped by adding 10 μl of 10M HCl per ml of sample. A volume of 20 μl is withdrawn and analyzed directly by HPLC under the standard conditions.
(§4) ^a : The compounds are incubated at pH 4.5 in the presence of
(§5) lysosomal enzymes (0.15 mg protein/ml) and 5 mM cysteine, and then
(§6) analyzed by spectrophotometry after HPLC. The initial purity of the
(§7) ^b : The results represent the relative concentration of primaquine
(§8) (PQ) and derivatives (PQX) in terms of the incubation time, expressed as
(§9) percentage of the initial concentration (time 0) after extraction.

[3] = Hydrolysis in the presence of lysosomal enzymes; format: in vitro ADME, rat; conditions: rat; for metabolised at 1 h: pH 4.5, 1 h; for metabolised at 2 h: pH 4.5, 2 h; for metabolised at 3 h: pH 4.5, 3 h; for metabolised at 6 h: pH 4.5, 6 h; for metabolised at 24 h: pH 4.5, 24 h
Method: as §1, §2, §3, §4, §5, §6, §7, §8, §9

[4] = system: persistent tissue forms of P. vivax and P. ovale; conditions: persistent tissue forms of P. vivax and P. ovale in man; cited from earlier work
[5] = system: man; conditions: human, in vivo, cited from earlier work
[6] = Hemolytic effect on human red cells; format: cell-based; conditions: human, red cells, pH 7.4, 1 hour, 37° C., read-out: Hemolysis (% of total hemoglobin concentration); for hemolysis at 1 h, 1000 µM: 1 mM; for hemolysis at 1 h, 2000 µM: 2 mM; for hemolysis at 1 h, 5000 µM: 5 mM; for hemolysis at 1 h, 10000 µM: 10 mM
Method: (§10) Two important toxic effects of PQ were assessed on the two derivatives: the hemolytic effect and the conversion of hemoglobin to methemoglobin.
(§11) A+ blood is washed twice in 0.15M phosphatebuffered saline at pH 7.4 containing 20 mM glucose (GPBS), and then resuspended at a concentration of 50% in the same buffer. To this suspension, an equal volume of compound dissolved in GPBS at different concentrations (test), or of GPBS (control) is added. The final hematocrit of the suspension is 25%. After 60 minutes' incubation at 37° C., the concentration of hemoglobin and methemoglobin is determined on the total suspension, and the concentration of hemoglobin present in the supernatant after centrifugation (extracellular hemoglobin) is determined, by the cyanmethemoglobin and benzidine methods (Fairbanks V.F., 1976, in "Fundamentals of Clinical Chemistry, M.W. Tietz Editors, Saunders").

[7] = system: human red cells; experiment: Hemolytic effect on human red cells; format: cell-based
Method: as §10, §11

[8] = system: human red cells; experiment: Methemoglobin production in human red cells; format: cell-based; conditions: for Methemoglobin (% of total hemoglobin concentration): 1 hour, 37° C.
Method: as §10, §11

[9] = system: human erythrocytes; conditions: for Concentration combined with erythrocytes (% initial concentration): human red cells 10^9/ml, 100 μg/ml
Method: Fresh human blood (A+) on CPDA is washed twice in RPMI medium containing 20 mM glucose at pH 7.4, and then resuspended in the same medium at 37° C. to obtain a 20% suspension of red cells (2×10^9 erythrocytes/ml). To 1 ml of this suspension, 1 ml of a solution of PQ or derivatives at a concentration of 0.250 mM in the same medium at 37° C. is added.
After different incubation times at 37° C., 0.5 ml of sample is withdrawn and then transferred to an Eppendorf tube containing 0.4 ml of silicone oil (Merck, density 1.06 g/ml).
After centrifugation for 30 seconds at 12,000 g, the supernatant and the silicone oil are removed, while the cells in the pellet are lyzed by adding 0.5 ml of water. The quinoline compound present in combination with the cell lysate is then extracted by precipitation of the cell proteins with acetonitrile (0.5 ml) and thereafter analyzed by HPLC under the standard conditions.
The intracellular concentration of quinoline derivative is obtained by subtracting the concentration of compound present in the extracellular medium from the total concentration in the cell lysate. The contaminating extracellular volume is measured using tritiated inulin.

[10] = Stability at room temperature; format: physicochemical; conditions: for Stability at room temp. under inert atmosphere: argon
[11] = liver lysosomal enzymes, pH 4.5, 37° C., read-out: Relative concentration of compound (% of initial concentration)
[12] = liver lysosomal enzyme fraction, read-out: Relative concentration of primaquine (PQ) from derivative

Structure (SMILES)	Therapeutic index (TI) [1]	Relative concentration of compound (% of initial concentration) [2] [%]	remaining at 1 h [3, 11] [%]	remaining at 2 h [3, 11] [%]	remaining at 3 h [3, 11] [%]	remaining at 6 h [3, 11] [%]	remaining at 24 h [3, 11] [%]	hemolysis at 1 h, 1000 µM [6] [%]	hemolysis at 1 h, 2000 µM [6] [%]	hemolysis at 1 h, 5000 µM [6] [%]	hemolysis at 1 h, 10000 µM [6] [%]	Methemoglobin (% of total hemoglobin concentration) ([8]; 1 mM)	Methemoglobin (% of total hemoglobin concentration) ([8]; 2 mM)	Methemoglobin (% of total hemoglobin concentration) ([8]; 5 mM)	Methemoglobin (% of total hemoglobin concentration) ([8]; 10 mM)	Accumulation in erythrocytes ([9]; not told)	Therapeutic index, fold higher than that of PQ [1]	Relative concentration of primaquine (PQ) from derivative [2] [%]	metabolised at 1 h [3, 12] [%]	metabolised at 2 h [3, 12] [%]	further results
COc1cc(NC(C)CCCN)c2ncccc2c1 (stereo not shown) [Primaquine, 6-methoxy-8-(4-amino-1-methylbutylamino)quinoline, reference compound]	1.7	100	94	96	84	87	68	2.1	2.3	2.8	4.7	1.2 (0.5) %	3.4 (1.8) %	5.8 (0.2) %	11.5 (4.2) %	taken up rapidly by erythrocytes					Clinical effectiveness [4]: clinically effective; Toxic effects (words) [5]: destabilizes the red cell membrane, inducing a hemolysis; Toxic effects (words) ([5]; listed as primaquine): hemolysis; also recorded: Methemoglobinuria and gastrointestinal disorders as well as certain effects on the central nervous system; Hemolytic effect [7]: concentration-dependent hemolytic effect; Hemolysis (% of total hemoglobin concentration) ([7]; 10 mM, 1 hour, 37° C., 60 min, 10000 µM): 4.7 (1.7) %; Methemoglobin (% of total hemoglobin concentration) ([8]; 10 mM, listed as PQ): 11.5%; Time for which concentration in red cells is maintained [9]: at least one hour; Concentration combined with erythrocytes (% initial concentration) ([9]; 5 min): 17.7 (1.2) %; Concentration combined with erythrocytes (% initial concentration) ([9]; 5 min, listed as PQ): 18%; Concentration combined with erythrocytes (% initial concentration) ([9]; 10 min): 18.0 (3.4) %; Concentration combined with erythrocytes (% initial concentration) ([9]; 60 min): 18.8 (0.2) %
COc1cc(NC(C)CCCNC(=O)CC[C@H](N)C(=O)O)c2ncccc2c1 (stereo partly drawn) [gGLU-PQ, N-(γ-L-glutamyl)primaquine]	> 19 and 19.4	100	104	95	98	101	105	0.27		0.58		1.4 (0.0) %		5.3 (0.0) %		not accumulated in erythrocytes	at least 11 -fold	0	0	0	metabolised at 3 h [3, 12]: 0%; metabolised at 6 h [3, 12]: 0%; metabolised at 24 h [3, 12]: 0%; Stability at room temp. and in the air [10]: unstable; Stability at room temp. under inert atmosphere [10]: stable
COc1cc(NC(C)CCCNC(=O)[C@@H]2CCC(=O)N2)c2ncccc2c1 (stereo partly drawn) [pGLU-PQ, N-(α-L-pyroglutamyl)primaquine]		99	94	97	97	96	76	0.32	0.24	0.44	2.34	0.9 (0.1) %	2.2 (0.9) %	3.9 (0.0) %	6.0 (0.2) %		9 -fold	1	0	0	Onset of gradual decrease in relative concentration [2]: > 6 h; metabolised at 3 h [3, 12]: 0%; metabolised at 6 h [3, 12]: 0%; metabolised at 24 h [3, 12]: 0%; metabolised at 48 h ([3]; liver lysosomal enzyme fraction, pH 4.5, 48 h, read-out: Relative concentration of primaquine (PQ) from derivative): 0%; remaining at 48 h ([3]; liver lysosomal enzymes, pH 4.5, 37° C., 48 h, read-out: Relative concentration of compound (% of initial concentration)): 47%; Stability at room temp. and in the air [10]: unstable; Stability at room temp. under inert atmosphere [10]: stable; Oxidation of hemoglobin, times less than PQ ([8]; same concentration as PQ (10 mM)): 1.5 times less; Time to maximum level in erythrocytes ([9]; not told): 60 min
